Experimental data taken from US20120088809A1, “1-(2-ALKYL-2,3-DIHYDRO-BENZOFURAN-4-YL)-PYRROLIDIN-3-YLAMINE ACYL COMPOUNDS” (priority 2009, published 2012).

Legend:
[1] = Plasma drug levels after oral administration; assay type: in vivo; conditions: male Sprague-Dawley rats; for Ratio 15/60 (plasma level 15 min / 60 min): oral 3 mg/kg; for concentration at 15 min / concentration at 60 min: rat, plasma; for concentration at 15 min: 15 min after oral administration of 3 mg/kg; for concentration at 60 min: 60 min after oral administration of 3 mg/kg
Protocol: The compounds of formula I show the surprising advantage of being maintained at more sustained plasma levels and thus being long acting. This can be evidenced, for instance, by measuring the plasma levels after oral administration to rats at 15 and 60 min after oral administration, resulting in lower ratio values for the compounds of the present invention. Thus the compounds of formula I, characterized in that R2 is an alkyl radical show more sustained plasma levels than prior art compounds (EP1189900B1), wherein R2 is hydrogen. […] Consequently, the present compounds allow for a more efficient therapy: the slow elimination facilitates maintaining a stable plasma concentration at a non-toxic, effective level and the prolonged effect may be expected to result in better compliance of the subject to be treated with the prescribed medication.

[2] = target: T1, recombinant human-MT1 receptor (Homo sapiens, UniProt P48039); assay: In vitro MT1 screening (AequoScreen aequorin luminescence, agonism); assay type: cell-based; conditions: percentage of activity relative to the reference agonist at the EC100 concentration
T1 construct: expressed in transfected cells; host or cells: unnamed cell line co-expressing mitochondrial apoaequorin and Gα16
T1 sequence (P48039 whole entry): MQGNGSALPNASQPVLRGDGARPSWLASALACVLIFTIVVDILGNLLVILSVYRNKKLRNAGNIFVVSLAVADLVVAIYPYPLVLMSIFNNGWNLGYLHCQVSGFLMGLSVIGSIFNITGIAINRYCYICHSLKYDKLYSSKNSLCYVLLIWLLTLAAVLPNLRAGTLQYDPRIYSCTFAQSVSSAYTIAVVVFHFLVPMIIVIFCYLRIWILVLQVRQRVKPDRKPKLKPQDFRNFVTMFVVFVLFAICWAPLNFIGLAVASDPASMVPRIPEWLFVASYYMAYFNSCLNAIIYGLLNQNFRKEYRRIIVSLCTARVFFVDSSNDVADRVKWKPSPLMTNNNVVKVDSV
From the text: To proceed with compound screening over MT1 receptor, a cell line characterised by a stable overexpression of recombinant human-MT1 receptor was used. This line co-expresses mitochondrial apoaequorin and subunit Gα16.
Subunit Gα16 belongs to GPCR superfamily, in which intracellular signal transduction is produced via phospholipase (PLC). Activation of PLC produces an increment of inositol-triphosphate levels and intracellular calcium levels. This increment in calcium levels is, therefore, independent and full compatible with the signal transduction of MT1 receptor.
After binding to calcium, aequorin carries out the oxidation of colenterazine to colenteramide, a luminescent reaction.
Assay protocol for agonist screening consists in an overnight incubation of cells and colenterazine, being performed by an AequoScreen™ system instrument, PerkinElmer, USA. After that this mixture was injected over a plate that contains the solution of the compounds to screen and luminescence was immediately read. Only in case of antagonism screening, after 15-30 min of the first injection the reference agonist was added in the same well, and then luminescence was measured.
Agonist activity was calculated as percentage of activity relative to the reference agonist at the EC100 concentration.

Row | Ratio 15/60 (plasma level 15 min / 60 min) [1] | concentration at 15 min [1] | concentration at 60 min [1] | activation at 0.001 µM ([2]; 1 nM compound) | activation at 0.1 µM ([2]; 100 nM compound) | % MT1 at 1 nM (agonism percentage) ([2]; 1 nM compound) | % MT1 at 100 nM (agonism percentage) ([2]; 100 nM compound) | Structure (SMILES)
1 | 1.03 | 56.8 ng/mL | 55.4 ng/mL | 19% | 73% |  |  | CC(=O)N[C@H]1CCN(c2ccc(F)c3c2CC(C)O3)C1 (stereo partly drawn) [Example 1, N-((3S)-1-(7-fluoro-2-methyl-2,3-dihydrobenzofuran-4-yl)pyrrolidin-3-yl)acetamide]
2 | 1.74 | 113 ng/mL | 64.9 ng/mL | 30% | 88% |  |  | CCC(=O)N[C@H]1CCN(c2ccc(F)c3c2CC(C)O3)C1 (stereo partly drawn) [Example 3, N-((3S)-1-(7-fluoro-2-methyl-2,3-dihydrobenzofuran-4-yl)pyrrolidin-3-yl)propionamide]
3 |  |  |  | 44% | 98% |  |  | CC1Cc2c(N3CC[C@H](NC(=O)C(C)F)C3)ccc(F)c2O1 (stereo partly drawn) [Example 4, 2-fluoro-N-((3S)-1-(7-fluoro-2-methyl-2,3-dihydrobenzofuran-4-yl)pyrrolidin-3-yl)propanamide]
4 |  |  |  | 32% | 91% |  |  | CCCC(=O)N[C@H]1CCN(c2ccc(F)c3c2CC(C)O3)C1 (stereo partly drawn) [Example 5, N-((3S)-1-(7-fluoro-2-methyl-2,3-dihydrobenzofuran-4-yl)pyrrolidin-3-yl)butyramide]
5 |  |  |  | 24% | 75% |  |  | CC1Cc2c(N3CC[C@H](NC(=O)C(C)C)C3)ccc(F)c2O1 (stereo partly drawn) [Example 6, N-((3S)-1-(7-fluoro-2-methyl-2,3-dihydrobenzofuran-4-yl)pyrrolidin-3-yl)isobutyramide]
6 |  |  |  | 17% | 70% |  |  | CCC(C)C(=O)N[C@H]1CCN(c2ccc(F)c3c2CC(C)O3)C1 (stereo partly drawn) [Example 9, N-((3S)-1-(7-fluoro-2-methyl-2,3-dihydrobenzofuran-4-yl)pyrrolidin-3-yl)-2-methylbutanamide]
7 |  |  |  | 36% | 89% |  |  | COC(=O)N[C@H]1CCN(c2ccc(F)c3c2CC(C)O3)C1 (stereo partly drawn) [Example 10, Methyl (3S)-1-(7-fluoro-2-methyl-2,3-dihydrobenzofuran-4-yl)pyrrolidin-3-ylcarbamate]
8 |  |  |  | 28% | 73% |  |  | CCOC(=O)N[C@H]1CCN(c2ccc(F)c3c2CC(C)O3)C1 (stereo partly drawn) [Example 11, Ethyl (3S)-1-(7-fluoro-2-methyl-2,3-dihydrobenzofuran-4-yl)pyrrolidin-3-ylcarbamate]
9 |  |  |  | 18% | 90% |  |  | CCNC(=O)N[C@H]1CCN(c2ccc(F)c3c2CC(C)O3)C1 (stereo partly drawn) [Example 12, 1-Ethyl-3-((3S)-1-(7-fluoro-2-methyl-2,3-dihydrobenzofuran-4-yl)pyrrolidin-3-yl)urea]

Further lines, the compound ahead of its results:

Row | Structure (SMILES) | Ratio 15/60 (plasma level 15 min / 60 min) [1] | concentration at 15 min [1] | concentration at 60 min [1] | activation at 0.001 µM ([2]; 1 nM compound) | activation at 0.1 µM ([2]; 100 nM compound) | % MT1 at 1 nM (agonism percentage) ([2]; 1 nM compound) | % MT1 at 100 nM (agonism percentage) ([2]; 100 nM compound)
10 | CC1Cc2c(N3CC[C@H](NC(=O)C(F)(F)F)C3)ccc(F)c2O1 (stereo partly drawn) [Example 2, 2,2,2-trifluoro-N-((3S)-1-(7-fluoro-2-methyl-2,3-dihydrobenzofuran-4-yl)pyrrolidin-3-yl)acetamide] |  |  |  | 32% | 79% |  | 
11 | CC1Cc2c(N3CC[C@H](NC(=O)C4CC4)C3)ccc(F)c2O1 (stereo partly drawn) [Example 7, N-((3S)-1-(7-fluoro-2-methyl-2,3-dihydrobenzofuran-4-yl)pyrrolidin-3-yl)cyclopropanecarboxamide] | 0.58 | 5.1 ng/mL | 8.8 ng/mL | 22% | 80% |  | 
12 | CCCCC(=O)N[C@H]1CCN(c2ccc(F)c3c2CC(C)O3)C1 (stereo partly drawn) [Example 8, N-((3S)-1-(7-fluoro-2-methyl-2,3-dihydrobenzofuran-4-yl)pyrrolidin-3-yl)pentanamide] |  |  |  | 31% | 89% |  | 
13 | CC(=O)N[C@H]1CCN(c2cccc3c2CC(C)O3)C1 (stereo partly drawn) [Example 13, N-((3S)-1-(2-methyl-2,3-dihydrobenzofuran-4-yl)pyrrolidin-3-yl)acetamide] | 2.29 | 433 ng/mL | 189 ng/mL | 17% | 91% |  | 
14 | CC1Cc2c(cccc2N2CC[C@H](NC(=O)C(F)(F)F)C2)O1 (stereo partly drawn) [Example 14, 2,2,2-trifluoro-N-((3S)-1-(2-methyl-2,3-dihydrobenzofuran-4-yl)pyrrolidin-3-yl)acetamide] |  |  |  | 8% | 79% |  | 
15 | CCC(=O)N[C@H]1CCN(c2cccc3c2CC(C)O3)C1 (stereo partly drawn) [Example 15, N-((3S)-1-(2-methyl-2,3-dihydrobenzofuran-4-yl)pyrrolidin-3-yl)propionamide] |  |  |  | 18% | 92% |  | 
16 | CC1Cc2c(cccc2N2CC[C@H](NC(=O)C(C)C)C2)O1 (stereo partly drawn) [Example 16, N-((3S)-1-(2-methyl-2,3-dihydrobenzofuran-4-yl)pyrrolidin-3-yl)isobutyramide] |  |  |  | 6% | 76% |  | 
17 | CC1Cc2c(cccc2N2CC[C@H](NC(=O)C3CC3)C2)O1 (stereo partly drawn) [Example 17, N-((3S)-1-(2-methyl-2,3-dihydrobenzofuran-4-yl)pyrrolidin-3-yl)cyclopropanecarboxamide] | 0.47 | 17 ng/mL | 36 ng/mL | 6% | 79% |  | 
18 | CC(C)CC(=O)N[C@H]1CCN(c2cccc3c2CC(C)O3)C1 (stereo partly drawn) [Example 18, 3-methyl-N-((3S)-1-(2-methyl-2,3-dihydrobenzofuran-4-yl)pyrrolidin-3-yl)butanamide] |  |  |  | 28% | 82% |  | 
19 | CCC1Cc2c(cccc2N2CC[C@H](NC(C)=O)C2)O1 (stereo partly drawn) [Example 19, N-((3S)-1-(2-ethyl-2,3-dihydrobenzofuran-4-yl)pyrrolidin-3-yl)acetamide] |  |  |  | 23% | 81% |  | 
20 | CCC(=O)N[C@H]1CCN(c2cccc3c2CC(CC)O3)C1 (stereo partly drawn) [Example 20, N-((3S)-1-(2-ethyl-2,3-dihydrobenzofuran-4-yl)pyrrolidin-3-yl)propionamide] | 1.80 | 106 ng/mL | 59 ng/mL | 26% | 88% |  | 
21 | CCCC1Cc2c(cccc2N2CC[C@H](NC(=O)CC)C2)O1 (stereo partly drawn) [Example 21, N-((3S)-1-(2-propyl-2,3-dihydrobenzofuran-4-yl)pyrrolidin-3-yl)propionamide] | 1.59 | 59 ng/mL | 37 ng/mL | 15% | 78% |  | 
22 | COc1ccc2[nH]cc(CCNC(C)=O)c2c1 [Melatonin, reference compound] | 3.49 | 255 ng/mL | 73 ng/mL |  |  | 42% | 101%
23 | CCC(=O)NCC[C@@H]1CCc2ccc3c(c21)CCO3 [Ramelteon, N-[2-[(8S)-1,6,7,8-tetrahydro-2H-indeno[5,4-b]furan-8-yl)ethyl]propionamide, reference compound] | 3.94 | 280 ng/mL | 71 ng/mL | 45% | 118% |  | 
